Experimental data as given in patent US8791046B2, “Crystalline modification of fipronil” (BASF SE, priority 2006, dated 2014).

Legend:
[1] = Solubility and dissolution rate in solvents; type: physicochemical; conditions: in most solvents
[2] = Stability of the acetone solvate crystal form at ambient conditions; type: physicochemical; conditions: co-crystallized acetone solvent is volatile at ambient conditions

fipronil [crystalline modification IV]
dissolution rate [1]: remarkable high
solubility [1]: remarkable high
stability of the crystalline modification [2]: remarkable stability
